Data: PubChem BioAssay (NCI)
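These data come from cells grown in 96-well plates and exposed to compound for 48 hours at five concentrations. GI50 is the concentration that inhibits growth by half. TGI: total growth inhibition.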

Legend:
Experiment in all cases: inhibition of tumour cell growth, NCI panel, 48 h
[1] = system: SK-OV-3 ovarian
[2] = system: K-562 leukemia
[3] = system: MDA-MB-231 breast
[4] = system: IGROV1 ovarian
[5] = system: SF-539 CNS
[6] = system: MCF7 breast
[7] = system: OVCAR-4 ovarian
[8] = system: HL-60(TB) leukemia
[9] = system: SN12C renal
[10] = system: DU-145 prostate
[11] = system: MDA-MB-435
[12] = system: MALME-3M melanoma
[13] = system: NCI/ADR-RES ovarian
[14] = system: SK-MEL-2 melanoma
[15] = system: CAKI-1 renal
[16] = system: CCRF-CEM leukemia
[17] = system: M14 melanoma
[18] = system: OVCAR-8 ovarian
[19] = system: SR leukemia
[20] = system: HCT-116 colon
[21] = system: RPMI-8226 leukemia
[22] = system: HS 578T breast
[23] = system: PC-3 prostate
[24] = system: SNB-75 CNS
[25] = system: UACC-257 melanoma
[26] = system: TK-10 renal
[27] = system: MOLT-4 leukemia
[28] = system: HOP-92 NSCLC
[29] = system: SF-268 CNS
[30] = system: EKVX NSCLC
[31] = system: SW-620 colon
[32] = system: OVCAR-5 ovarian
[33] = system: T-47D breast
[34] = system: SK-MEL-28 melanoma
[35] = system: ACHN renal
[36] = system: SF-295 CNS
[37] = system: HCT-15 colon
[38] = system: UACC-62 melanoma

COc1cc(/C=C2\CCCC3=C2NC(N)=NC3c2cc(OC)c(OC)c(OC)c2)cc(OC)c1OC (stereo unspecified)
GI50 [1]: 3.43 µM
TGI [1]: > 100 µM
GI50 [2]: 2.15 µM
TGI [2]: > 100 µM
GI50 [3]: 3.87 µM
TGI [3]: > 100 µM
GI50 [4]: 3.35 µM
TGI [4]: > 100 µM
GI50 [5]: 3.27 µM
TGI [5]: > 100 µM
GI50 [6]: 1.49 µM
TGI [6]: > 100 µM
GI50 [7]: 1.7 µM
TGI [7]: > 100 µM
GI50 [8]: 2.6 µM
TGI [8]: > 100 µM
GI50 [9]: 1.62 µM
TGI [9]: > 100 µM
GI50 [10]: 3.36 µM
TGI [10]: > 100 µM
GI50 [11]: 0.422 µM
TGI [11]: > 100 µM
GI50 [12]: 1.92 µM
TGI [12]: 5.47 µM
GI50 [13]: 0.29 µM
TGI [13]: > 100 µM
GI50 [14]: 2.08 µM
TGI [14]: 4.83 µM
GI50 [15]: 1.44 µM
TGI [15]: 7.69 µM
GI50 [16]: 0.419 µM
TGI [16]: 7.31 µM
GI50 [17]: 0.633 µM
TGI [17]: 2.91 µM
GI50 [18]: 0.298 µM
TGI [18]: 12.1 µM
GI50 [19]: 0.51 µM
TGI [19]: 3.74 µM
GI50 [20]: 0.551 µM
TGI [20]: 1.97 µM
GI50 [21]: 0.291 µM
TGI [21]: 1.79 µM
GI50 [22]: 0.554 µM
TGI [22]: 7.62 µM
GI50 [23]: 1.93 µM
TGI [23]: > 100 µM
GI50 [24]: 8.02 µM
TGI [24]: > 100 µM
GI50 [25]: 1.25 µM
TGI [25]: 4.35 µM
GI50 [26]: 3.24 µM
TGI [26]: 7.23 µM
GI50 [27]: 1.69 µM
TGI [27]: 5.83 µM
GI50 [28]: 1.58 µM
TGI [28]: 5.74 µM
GI50 [29]: 2.42 µM
TGI [29]: > 100 µM
GI50 [30]: 3.12 µM
TGI [30]: > 100 µM
GI50 [31]: 1.08 µM
TGI [31]: 3.51 µM

CCCCCCCCCCCCCCCCCCOc1ccccc1CC(=O)OCC[N+](C)(C)C
GI50 [3]: 1.57 µM
TGI [3]: 3.21 µM
GI50 [10]: 1.71 µM
TGI [10]: 3.09 µM
GI50 [13]: 9.84 µM
TGI [13]: 35.7 µM
GI50 [32]: 1.45 µM
TGI [32]: 2.89 µM
GI50 [33]: 2.06 µM
TGI [33]: 4.89 µM
GI50 [34]: 1.63 µM
TGI [34]: 3.57 µM
GI50 [35]: 1.75 µM
TGI [35]: 3.72 µM
GI50 [25]: 2.34 µM
TGI [25]: 6.34 µM
GI50 [36]: 2.03 µM
TGI [36]: 4.52 µM
GI50 [37]: 2.94 µM
TGI [37]: 11.5 µM
GI50 [38]: 1.57 µM
TGI [38]: 3.51 µM
GI50 [30]: 2.17 µM
TGI [30]: 5.4 µM
